Source: PubChem BioAssay AID248 (DTP/NCI, 2004)
Values joined by “and” are separate entries in the source; they are usually repeats but may differ in a detail not shown here. Identical values can stand only once. Inconclusive results and toxic doses are left out. No stated cut-off is given here; in the data, active means T/C of 150% or more; inactive means T/C below 125%.

Test system: L1210 leukemia ip in BDF1 mice, survival T/C
Assay: NCI In Vivo Anticancer Drug Screen. Data for tumor model L1210 Leukemia (intraperitoneal) in B6D2F1 (BDF1) mice
Conditions: endpoint: mean survival time, higher = longer survival
Experimental: The antitumor activity of compounds was measured in mice bearing transplantable tumors. Survival or tumor size were measured and the results are expressed as the measurement made in the treated group (T) divided by the measurement made in the vehicle treated control group (C). The tumor model used in this assay is L1210 Leukemia (intraperitoneal) in B6D2F1 (BDF1) mice

[1] = dose: 100.0 mg/kg/injection, schedule: Q04DX003 (ip), vehicle: Klucel (hydroxypropylcellulose) (HPC)
[2] = dose: 200.0 mg/kg/injection, schedule: Q04DX003 (ip), vehicle: Klucel (hydroxypropylcellulose) (HPC)
[3] = dose: 400.0 mg/kg/injection, schedule: Q04DX003 (ip), vehicle: Klucel (hydroxypropylcellulose) (HPC)
[4] = dose: 100.0 mg/kg/injection, schedule: Q04DX003 (ip), vehicle: saline with Tween-80
[5] = dose: 200.0 mg/kg/injection, schedule: Q04DX003 (ip), vehicle: saline with Tween-80
[6] = dose: 400.0 mg/kg/injection, schedule: Q04DX003 (ip), vehicle: saline with Tween-80
[7] = dose: 100.0 mg/kg/injection, schedule: Q01DX009 (ip), vehicle: saline with Tween-80
[8] = dose: 200.0 mg/kg/injection, schedule: Q01DX009 (ip), vehicle: saline with Tween-80
[9] = dose: 100.0 mg/kg/injection, schedule: Q01DX001 (ip), vehicle: saline
[10] = dose: 200.0 mg/kg/injection, schedule: Q01DX001 (ip), vehicle: saline
[11] = dose: 400.0 mg/kg/injection, schedule: Q01DX001 (ip), vehicle: saline
[12] = dose: 100.0 mg/kg/injection, schedule: Q04DX002 (ip), vehicle: Klucel (hydroxypropylcellulose) (HPC)
[13] = dose: 200.0 mg/kg/injection, schedule: Q04DX002 (ip), vehicle: Klucel (hydroxypropylcellulose) (HPC)
[14] = dose: 400.0 mg/kg/injection, schedule: Q04DX002 (ip), vehicle: Klucel (hydroxypropylcellulose) (HPC)
[15] = dose: 400.0 mg/kg/injection, schedule: Q01DX009 (ip), vehicle: saline with Tween-80

Measured: T/C

CN1C(=O)OC2(CCN(Cc3ccc([N+](=O)[O-])o3)CC2)C1=O
inactive: [1] 98 % of control | [2] 96 % of control | [3] 98 % of control

OCC[S+](CCO)CCO
inactive: dose: 100.0 mg/kg/injection, schedule: Q04DX003 (ip), vehicle: saline 105 % of control | dose: 200.0 mg/kg/injection, schedule: Q04DX003 (ip), vehicle: saline 102 % of control | dose: 400.0 mg/kg/injection, schedule: Q04DX003 (ip), vehicle: saline 104 % of control

O=C(CCCl)Nc1cccc2c1C(=O)c1c(c(O)c3ccccc3c1O)C2=O
inactive: [4] 90 % of control | [5] 92 % of control | [6] 91 % of control

CCOC(=O)c1cc(C=O)nc2c(Cl)cc(Cl)cc12
inactive: [7] 89 % of control | [8] 92 % of control

COc1ccc(OC(=S)N(C)C)cc1
inactive: [4] 94 % of control | [5] 88 % of control | [6] 102 % of control

CC(C)(C#CC(C)(C)OC(=O)Nc1ccccc1)OC(=O)Nc1ccccc1
inactive: [9] 98 % of control | [10] 95 % of control | [11] 101 % of control

O=C(Nc1ccc(Br)cc1)c1nc(Br)[nH]c1Br
inactive: dose: 6.25 mg/kg/injection, schedule: Q01DX009 (ip), vehicle: saline with Tween-80 94 % of control | dose: 12.5 mg/kg/injection, schedule: Q01DX009 (ip), vehicle: saline with Tween-80 89 % of control | dose: 25.0 mg/kg/injection, schedule: Q01DX009 (ip), vehicle: saline with Tween-80 89 % of control

CCOC(=O)CNc1ccc(C)c(C)c1
inactive: [12] 95 % of control | [13] 109 % of control | [14] 104 % of control

COc1cc2c(c(OC)c1OC)-c1ccc(SC)c(=O)cc1C(NC1OC(CO)C(O)C(O)C1O)CC2 (stereo unspecified)
inactive: dose: 12.5 mg/kg/injection, schedule: Q01DX005 (ip), vehicle: saline 100 % of control | dose: 25.0 mg/kg/injection, schedule: Q01DX005 (ip), vehicle: saline 100 % of control | dose: 50.0 mg/kg/injection, schedule: Q01DX005 (ip), vehicle: saline 112 % of control and 119 % of control | dose: 100.0 mg/kg/injection, schedule: Q01DX005 (ip), vehicle: saline 116 % of control

CO/N=C1/C=C(C)C(=O)C(C)=C1C
inactive: dose: 50.0 mg/kg/injection, schedule: Q01DX001 (ip), vehicle: saline 94 % of control | [9] 97 % of control | dose: 100.0 mg/kg/injection, schedule: Q01DX009 (ip), vehicle: Klucel (hydroxypropylcellulose) (HPC) 102 % of control | [1] 97 % of control | [10] 105 % of control | dose: 200.0 mg/kg/injection, schedule: Q01DX009 (ip), vehicle: Klucel (hydroxypropylcellulose) (HPC) 98 % of control | [2] 92 % of control | [11] 94 % of control | dose: 400.0 mg/kg/injection, schedule: Q01DX009 (ip), vehicle: Klucel (hydroxypropylcellulose) (HPC) 95 % of control | [3] 101 % of control

Cc1cc(=O)cc(C)o1
inactive: [7] 108 % of control | [8] 100 % of control | [15] 102 % of control

C1CC2CC3OC3CC12 (stereo unspecified)
inactive: [12] 95 % of control | [13] 92 % of control | [14] 92 % of control

O=C(NC(=S)N1CC=CCC1)c1ccccc1
inactive: dose: 100.0 mg/kg/injection, schedule: Q04DX002 (ip), vehicle: gum acacia 97 % of control | dose: 200.0 mg/kg/injection, schedule: Q04DX002 (ip), vehicle: gum acacia 100 % of control | dose: 400.0 mg/kg/injection, schedule: Q04DX002 (ip), vehicle: gum acacia 93 % of control

CC(=O)[O][Hg][c]1ccc(Cl)cc1
inactive: dose: 5.0 mg/kg/injection, schedule: Q01DX001 (ip), vehicle: saline 89 % of control | dose: 10.0 mg/kg/injection, schedule: Q01DX001 (ip), vehicle: saline 94 % of control | dose: 20.0 mg/kg/injection, schedule: Q01DX001 (ip), vehicle: saline 96 % of control | dose: 40.0 mg/kg/injection, schedule: Q01DX001 (ip), vehicle: saline 89 % of control | dose: 80.0 mg/kg/injection, schedule: Q01DX001 (ip), vehicle: saline 91 % of control

CC(=O)OC1c2sccc2Cc2ccsc21
inactive: dose: 100.0 mg/kg/injection, schedule: Q01DX001 (ip), vehicle: saline with Tween-80 91 % of control | dose: 200.0 mg/kg/injection, schedule: Q01DX001 (ip), vehicle: saline with Tween-80 105 % of control

Cc1ccc(S(=O)(=O)NC(N)=NCCCC(NC(=O)OC(C)(C)C)C(=O)O)cc1 (stereo unspecified)
inactive: [7] 89 % of control | [8] 86 % of control | [15] 86 % of control
